Measurements reported in the NIST ThermoML archive (doi:10.1021/je100083w).

Conditions: Liquid, Bellows volumetry

O [water]
Conditions | specific volume [m3/kg]
273.67 K, 199000 kPa | 0.0009252
273.68 K, 348800 kPa | 0.0008889
273.74 K, 298900 kPa | 0.0009003
273.82 K, 350400 kPa | 0.0008893
283.33 K, 199000 kPa | 0.000928
283.36 K, 69000 kPa | 0.0009704
283.39 K, 298700 kPa | 0.0009035
283.43 K, 249000 kPa | 0.000915
283.43 K, 349100 kPa | 0.0008928
283.47 K, 199000 kPa | 0.0009281
283.48 K, 149100 kPa | 0.0009425
283.49 K, 149300 kPa | 0.0009423
283.5 K, 69200 kPa | 0.0009702
283.5 K, 248900 kPa | 0.0009152
283.51 K, 98900 kPa | 0.0009592
283.51 K, 99000 kPa | 0.0009591
283.52 K, 148800 kPa | 0.0009426
283.53 K, 198900 kPa | 0.000928
283.54 K, 69000 kPa | 0.0009703
283.54 K, 249100 kPa | 0.0009148
283.56 K, 299300 kPa | 0.0009032
283.6 K, 299000 kPa | 0.0009038
283.62 K, 349300 kPa | 0.0008926
283.7 K, 99000 kPa | 0.0009592
283.72 K, 348000 kPa | 0.0008941
293.2 K, 249000 kPa | 0.0009188
293.22 K, 299000 kPa | 0.0009073
293.23 K, 149200 kPa | 0.0009458
293.25 K, 199000 kPa | 0.0009316
293.28 K, 99300 kPa | 0.0009619
293.31 K, 349200 kPa | 0.000897
293.34 K, 349300 kPa | 0.0008968
293.35 K, 69300 kPa | 0.0009728
293.38 K, 299400 kPa | 0.0009073
293.39 K, 199400 kPa | 0.0009315
293.39 K, 249000 kPa | 0.0009189
293.4 K, 99100 kPa | 0.000962
293.41 K, 149100 kPa | 0.0009458
293.42 K, 68900 kPa | 0.0009729
293.46 K, 199100 kPa | 0.0009322
293.47 K, 99200 kPa | 0.0009625
293.49 K, 148800 kPa | 0.0009465
293.5 K, 100 kPa | 0.001002
293.52 K, 248900 kPa | 0.0009196
293.53 K, 100 kPa | 0.001002
293.53 K, 349200 kPa | 0.0008974
293.54 K, 299000 kPa | 0.000908
293.55 K, 100 kPa | 0.001002
293.6 K, 69200 kPa | 0.0009732
303.35 K, 98500 kPa | 0.0009655
303.37 K, 69200 kPa | 0.0009758
303.4 K, 98900 kPa | 0.0009651
303.4 K, 148900 kPa | 0.000949
303.41 K, 198900 kPa | 0.0009347
303.42 K, 68900 kPa | 0.0009761
303.42 K, 69800 kPa | 0.0009757
303.43 K, 248900 kPa | 0.000922
303.48 K, 99200 kPa | 0.0009653
303.48 K, 149000 kPa | 0.0009492
303.49 K, 299100 kPa | 0.0009104
303.51 K, 149100 kPa | 0.0009494
303.52 K, 349300 kPa | 0.0008999
303.55 K, 299100 kPa | 0.000911
303.56 K, 199000 kPa | 0.000935
303.57 K, 198800 kPa | 0.0009353
303.57 K, 248800 kPa | 0.0009226
303.57 K, 249300 kPa | 0.0009222
303.61 K, 299200 kPa | 0.0009108
303.63 K, 349200 kPa | 0.0009004
303.72 K, 349100 kPa | 0.0009003
313.38 K, 149300 kPa | 0.0009528
313.38 K, 349300 kPa | 0.0009051
313.39 K, 69100 kPa | 0.0009801
313.39 K, 98800 kPa | 0.000969
313.39 K, 148800 kPa | 0.0009534
313.4 K, 69100 kPa | 0.0009799
313.4 K, 98600 kPa | 0.0009695
313.4 K, 199200 kPa | 0.0009386
313.41 K, 99000 kPa | 0.0009696
313.42 K, 149000 kPa | 0.0009538
313.42 K, 198900 kPa | 0.0009393
313.43 K, 69000 kPa | 0.0009796
313.44 K, 249300 kPa | 0.0009265
313.44 K, 299600 kPa | 0.0009155
313.44 K, 348900 kPa | 0.000904
313.45 K, 248900 kPa | 0.0009271
313.46 K, 199100 kPa | 0.0009397
313.46 K, 249200 kPa | 0.0009259
313.46 K, 299400 kPa | 0.0009151
313.46 K, 349500 kPa | 0.0009046
313.48 K, 299700 kPa | 0.0009144
323.04 K, 248700 kPa | 0.0009318
323.09 K, 198800 kPa | 0.0009435
323.13 K, 299200 kPa | 0.0009196
323.17 K, 249000 kPa | 0.0009307
323.17 K, 349400 kPa | 0.0009091
323.19 K, 299100 kPa | 0.0009191
323.21 K, 349000 kPa | 0.0009095
323.25 K, 248900 kPa | 0.0009312
323.26 K, 298400 kPa | 0.0009203
323.28 K, 199000 kPa | 0.0009438
323.3 K, 149300 kPa | 0.0009578
323.31 K, 99100 kPa | 0.0009737
323.33 K, 69200 kPa | 0.0009842
323.34 K, 198300 kPa | 0.0009446
323.34 K, 349300 kPa | 0.0009085
323.35 K, 68300 kPa | 0.0009846
323.35 K, 149000 kPa | 0.0009578
323.37 K, 99600 kPa | 0.0009736
323.41 K, 149200 kPa | 0.0009584
323.43 K, 99200 kPa | 0.0009742
323.46 K, 68800 kPa | 0.0009848
